Experimental data as given in patent publication US20240166617A1, “PHOSPHOINOSITIDE 3 KINASE BETA INHIBITORS AND COMPOSITIONS AND METHODS THEREOF” (Geode Therapeutics Inc., priority 2021, published 2024).
Where two headings read alike, the source gives them in different places.

Test system: phosphorylation of AKT in HCC70 cells
Assay: Cellular assay: phosphorylation of AKT in HCC70 cells (western blotting)
Format: cell-based
Details: Homo sapiens, HCC70, 1 h
Description: Cellular activity of PI3Kβ inhibitors was determined by quantifying the phosphorylation of AKT in HCC70 cells. AKT phosphorylated at Ser473 and Thr308 were measured using western blotting and specific primary antibodies from Cell Signaling (CST), Danvers, MA. On day 1, HCC70 cells (ATCC #CRL-2315) were seeded into Falcon 12-well cell Culture Plate (Corning #353043) at 100,000 cells per well, in 1 ml complete culture medium (RPMI-1640, GIBCO #11875093) containing 10% heat inactivated FBS (GIBCO #10438026), 1% Pen-Strep (GIBCO #15140122) and incubated at 37° AC, 5% CO2 overnight. On day 2, compound (500 nM) or DMSO (0.1%, Sigma Aldrich #8418) was added and cells were further incubated for 60 min at 37° AC, 5% CO2 in a total volume of 1 ml fresh medium.
At the end of the cell treatment period, media were removed by aspiration and adherent cells were lysed in 100 uL RIPA buffer (Sigma Aldrich #R0278). Equal volume (15 uL) of proteins was resolved by SDS-PAGE and transferred to PVDF (Millipore #IPFL00010) membrane for immunoblot analysis. Primary antibodies to the following proteins were used for immunoblotting: phosphor-AKT (Ser473) (CST #4060), phosphor-AKT (Thr308) (CST #2965), total AKT (CST #9272). Secondary goat anti-rabbit IgG fluorophore conjugated antibody (Invitrogen #A21109) was used to visualize the indicated proteins on an Odyssey CLx imaging system (Li-Cor). Quantification of band intensities was performed using Odyssey 3.0 software. Inhibition of Akt activity was calculated by band intensities using the formula: […]
Index was evaluated by % of AI. Data represent Index+(20˜60%), ++(60%˜80%), +++(80%˜90%), and ++++>90%.

[1] = HCC70 cells, compound 500 nM, 60 min, inhibition of Akt activity from band intensities, read-out: Index of AI (HCC70) p-AKT Thr 308
[2] = HCC70 cells, compound 500 nM, 60 min, inhibition of Akt activity from band intensities, read-out: Index of AI (HCC70) p-AKT ser 473

Row | Compound | inhibition at 0.5 µM [1] | inhibition at 0.5 µM [2] | inhibition at 0.5 µM (read-out: Index of AI (HCC70) p-AKT Thr 308) | inhibition at 0.5 µM (read-out: Index of AI (HCC70) p-AKT ser 473)
1 | CC(c1cc(C(=O)N2CC[C@@H](N(C)C)C2)cn2c(=O)cc(N3CCOCC3)nc12)N1CCc2cccc(Cl)c21 (stereo partly drawn) [Compound 97, 9-(1-(7-chloroindolin-1-yl)ethyl)-7-((R)-3-(dimethylamino)pyrrolidine-1-carbonyl)-2-morpholino-4H-pyrido[1,2-a]pyrimidin-4-one] | 20 to 60% | 20 to 60% | – | –
2 | CC(C)CNC(=O)c1cc(CN2CCc3c(F)cc(F)cc32)c2oc(N3CCOCC3)cc(=O)c2c1 [Compound 85, 8-((4,6-difluoroindolin-1-yl)methyl)-N-isobutyl-2-morpholino-4-oxo-4H-chromene-6-carboxamide] | 60 to 80% | 60 to 80% | – | –
3 | CN(C)C(=O)c1cc(CN2CCc3cccc(Cl)c32)c2oc(N3CCOCC3)cc(=O)c2c1 [Compound 36, 8-((7-chloroindolin-1-yl)methyl)-N,N-dimethyl-2-morpholino-4-oxo-4H-chromene-6-carboxamide] | > 90% | > 90% | – | –
4 | CCNC(=O)c1cc(CN2CCc3c(F)cc(F)cc32)c2oc(N3CCOCC3)cc(=O)c2c1 [Compound 80, 8-((4,6-difluoroindolin-1-yl)methyl)-N-ethyl-2-morpholino-4-oxo-4H-chromene-6-carboxamide] | 60 to 80% | 60 to 80% | – | –
5 | Cc1cc(CN2CCc3c(F)cc(F)cc32)c2nc(N3CCOCC3)cc(=O)n2c1 [Compound 54, 9-((4,6-difluoroindolin-1-yl)methyl)-7-methyl-2-morpholino-4H-pyrido[1,2-a]pyrimidin-4-one] | 20 to 60% | 20 to 60% | – | –
6 | CN(C)C(=O)c1cc(CN2c3cc(F)cc(F)c3CC2(C)C)c2oc(N3CCOCC3)cc(=O)c2c1 [Compound 66, 8-((4,6-difluoro-2,2-dimethylindolin-1-yl)methyl)-N,N-dimethyl-2-morpholino-4-oxo-4H-chromene-6-carboxamide] | 80 to 90% | 80 to 90% | – | –
7 | CCN(CC)C(=O)c1cc(CN2CCc3c(F)cc(F)cc32)c2oc(N3CCOCC3)cc(=O)c2c1 [Compound 78, 8-((4,6-difluoroindolin-1-yl)methyl)-N,N-diethyl-2-morpholino-4-oxo-4H-chromene-6-carboxamide] | 80 to 90% | 80 to 90% | – | –
8 | O=c1cc(N2CCOCC2)oc2c(CNc3cc(F)cc(F)c3)cc(C3CC3)cc12 [Compound 6, 6-cyclopropyl-8-(((3,5-difluorophenyl)amino)methyl)-2-morpholino-4H-chromen-4-one] | 60 to 80% | 60 to 80% | – | –
9 | Cc1cc(CN2c3ccccc3CC2C)c2nc(N3CCOCC3)cc(=O)n2c1 (stereo not drawn) [Compound 57, 7-methyl-9-((2-methylindolin-1-yl)methyl)-2-morpholino-4H-pyrido[1,2-a]pyrimidin-4-one] | 60 to 80% | 60 to 80% | – | –
10 | CC1Cc2c(F)cc(F)cc2N1C(C)c1cc(C(=O)N(C)C)cn2c(=O)cc(N3CCOCC3)nc12 (stereo not drawn) [Compound 96, 9-(1-(4,6-difluoro-2-methylindolin-1-yl)ethyl)-N,N-dimethyl-2-morpholino-4-oxo-4H-pyrido[1,2-a]pyrimidine-7-carboxamide] | > 90% | > 90% | – | –
11 | CC(Nc1cc(F)cc(F)c1)c1cc(Cc2nnc[nH]2)cc2c(=O)cc(N3CCOCC3)oc12 (stereo not drawn) [Compound 60, 6-((4H-1,2,4-triazol-3-yl)methyl)-8-(1-((3,5-difluorophenyl)amino)ethyl)-2-morpholino-4H-chromen-4-one] | 80 to 90% | 80 to 90% | – | –
12 | C[C@H]1Cc2c(F)cc(F)cc2N1Cc1cc(C(=O)N(C)C)cc2c(=O)cc(N3CCOCC3)oc12 (single isomer, unassigned) [Compound 64] | > 90% | > 90% | – | –
13 | CC(Nc1cc(F)cc(F)c1)c1cc(NC(=O)CC#N)cc2c(=O)cc(N3CCOCC3)oc12 (stereo not drawn) [Compound 22, 2-cyano-N-(8-(1-((3,5-difluorophenyl)amino)ethyl)-2-morpholino-4-oxo-4H-chromen-6-yl)acetamide] | > 90% | > 90% | – | –
14 | CC(Nc1cc(F)cc(F)c1)c1cc(CC(=O)N(C)C)cc2c(=O)cc(N3CCOCC3)oc12 (stereo not drawn) [Compound 24, 2-(8-(1-((3,5-difluorophenyl)amino)ethyl)-2-morpholino-4-oxo-4H-chromen-6-yl)-N,N-dimethylacetamide] | > 90% | > 90% | – | –
15 | CN(C)C(=O)c1cc(CN2CCc3c(Cl)cccc32)c2oc(N3CCOCC3)cc(=O)c2c1 [Compound 71, 8-((4-chloroindolin-1-yl)methyl)-N,N-dimethyl-2-morpholino-4-oxo-4H-chromene-6-carboxamide] | > 90% | > 90% | – | –
16 | CN(C)C(=O)c1cc(CN2CCc3c(F)ccc(F)c32)c2nc(N3CCOCC3)cc(=O)n2c1 [Compound 99, 9-((4,7-difluoroindolin-1-yl)methyl)-N,N-dimethyl-2-morpholino-4-oxo-4H-pyrido[1,2-a]pyrimidine-7-carboxamide] | 80 to 90% | 80 to 90% | – | –
17 | CN(C)C(=O)c1cc(CN2CCc3c(F)ccc(Cl)c32)c2oc(N3CCOCC3)cc(=O)c2c1 [Compound 62, 8-((7-chloro-4-fluoroindolin-1-yl)methyl)-N,N-dimethyl-2-morpholino-4-oxo-4H-chromene-6-carboxamide] | 80 to 90% | 80 to 90% | – | –
18 | CC(Nc1cc(F)cc(F)c1)c1cc(NC2=NCCN2)cc2c(=O)cc(N3CCOCC3)oc12 (stereo not drawn) [Compound 20, 8-(1-((3,5-difluorophenyl)amino)ethyl)-6-((4,5-dihydro-1H-imidazol-2-yl)amino)-2-morpholino-4H-chromen-4-one] | 60 to 80% | 60 to 80% | – | –
19 | CN1CCC(NC(=O)c2cc(CN3CCc4c(F)cc(F)cc43)c3oc(N4CCOCC4)cc(=O)c3c2)CC1 [Compound 82, 8-((4,6-difluoroindolin-1-yl)methyl)-N-(1-methylpiperidin-4-yl)-2-morpholino-4-oxo-4H-chromene-6-carboxamide] | 80 to 90% | 80 to 90% | – | –
20 | N#Cc1cc(CNc2cc(F)cc(F)c2)c2oc(N3CCOCC3)cc(=O)c2c1 [Compound 3, 8-(((3,5-difluorophenyl)amino)methyl)-2-morpholino-4-oxo-4H-chromene-6-carbonitrile] | 60 to 80% | 60 to 80% | – | –
21 | CN(C)C(=O)c1cc(CN2CCc3c(F)cc(F)cc32)c2nc(N3CCOCC3)cc(=O)n2c1 [Compound 98, 9-((4,6-difluoroindolin-1-yl)methyl)-N,N-dimethyl-2-morpholino-4-oxo-4H-pyrido[1,2-a]pyrimidine-7-carboxamide] | 80 to 90% | 80 to 90% | – | –
22 | CNC(=O)c1cc(CN2CCc3c(F)cc(F)cc32)c2oc(N3CCOCC3)cc(=O)c2c1 [Compound 86, 8-((4,6-difluoroindolin-1-yl)methyl)-N-methyl-2-morpholino-4-oxo-4H-chromene-6-carboxamide] | > 90% | > 90% | – | –
23 | CN(C)C(=O)c1cc(CN2CCc3ccccc32)c2oc(N3CCOCC3)cc(=O)c2c1 [Compound 67, 8-(indolin-1-ylmethyl)-N,N-dimethyl-2-morpholino-4-oxo-4H-chromene-6-carboxamide] | 60 to 80% | 60 to 80% | – | –
24 | O=C(c1cc(CN2CCc3c(F)cc(F)cc32)c2oc(N3CCOCC3)cc(=O)c2c1)N1CC(O)C1 [Compound 89, 8-((4,6-difluoroindolin-1-yl)methyl)-6-(3-hydroxyazetidine-1-carbonyl)-2-morpholino-4H-chromen-4-one] | – | 20 to 60% | – | –
25 | CC(Nc1cccc(F)c1F)c1cc(C(=O)N2CC[C@@H](N(C)C)C2)cn2c(=O)cc(N3CCOCC3)nc12 (stereo partly drawn) [Compound 95, 9-(1-((2,3-difluorophenyl)amino)ethyl)-7-((R)-3-(dimethylamino)pyrrolidine-1-carbonyl)-2-morpholino-4H-pyrido[1,2-a]pyrimidin-4-one] | – | – | 60 to 80% | 60 to 80%
26 | COc1cccc2c1N(Cc1cc(C(=O)N(C)C)cc3c(=O)cc(N4CCOCC4)oc13)CC2 [Compound 72, 8-((7-methoxyindolin-1-yl)methyl)-N,N-dimethyl-2-morpholino-4-oxo-4H-chromene-6-carboxamide] | 20 to 60% | 20 to 60% | – | –
